Assay results from patent US6756381B2 (SuperGen, Inc., priority 2002, dated 2004).

Key:
human tumor xenografts = details: nude mice; cited from earlier work
[1] = Moisture sorption/desorption (VTI SGA-100 moisture balance); assay type: physicochemical; details: for hygroscopicity (in words): 5 to 95% RH; for Weight % chg: 25 deg C
Description: The samples were not dried prior to analysis.

[2] = Storage of Form B in a closed vial, XRPD pattern compared; assay type: physicochemical; details: 31 days, ambient conditions
Protocol: X-ray powder diffraction analyses were carried out on a Shimadzu XRD-6000 X-ray powder diffractometer using Cu Kα radiation having a wavelength of 1.5406 Å. The instrument is equipped with a fine-focus X-ray tube. The tube power was set by setting potential difference at 40 kV, and current 40 mA. The divergence and scattering slits were set at 1° and the receiving slit was set at 0.15 mm. Diffracted radiation was detected by a NaI scintillation detector. A theta-two theta continuous scan at 3°/min (0.4 sec/0.02° step) from 2.5 to 40 °2 θ was performed. A silicon standard was analyzed each day to check the instrument alignment. Each sample was analyzed in a quartz sample holder. A variable temperature (VT-XRPD) experiment was performed on one form. The sample was prepared for analysis by pressing it into a variable temperature holder. A powder pattern was collected initially at 35° C. and again, after heating, at 200° C.

[3] = Dehydration/desolvation under vacuum, XRPD compared; assay type: physicochemical
Protocol: Dehydration/desolvation studies were conducted by placing a sample under continuous vacuum at room temperature for 14 days. An XRPD pattern was obtained on the remaining solid and compared to the starting material.

[4] = cited from earlier work
[5] = start, elapsed time 0.0 min, sample not dried

SMILES: CC[C@@]1(O)C(=O)OCc2c1cc1n(c2=O)Cc2cc3c([N+](=O)[O-])cccc3nc2-1 [9-nitrocamptothecin, 9-nitro-20(S)-camptothecin]
- regression of human tumors established as xenografts (human tumor xenografts): induced regression

SMILES: CC[C@@]1(O)C(=O)OCc2c1cc1n(c2=O)Cc2cc3c([N+](=O)[O-])cccc3nc2-1 [Form A, 9-nitrocamptothecin]
- hygroscopicity (in words) [1]: not hygroscopic
- Weight % chg ([1]; sorption, about 35% RH): 0.0210%
- Weight % chg [1, 5]: 0.0000%

SMILES: CC[C@@]1(O)C(=O)OCc2c1cc1n(c2=O)Cc2cc3c([N+](=O)[O-])cccc3nc2-1 [Form B, 9-nitrocamptothecin]
- hygroscopicity (in words) [1]: relatively hygroscopic
- Weight % chg [1, 5]: 0.0000%
- stability of the crystalline polymorph on storage (XRPD pattern unchanged) [2]: relatively stable

SMILES: CC[C@@]1(O)C(=O)OCc2c1cc1n(c2=O)Cc2cc3c([N+](=O)[O-])cccc3nc2-1 [Form C, 9-nitrocamptothecin]
- result of attempt to desolvate under vacuum [3]: becomes amorphous

SMILES: CC[C@@](O)(C(=O)[O-])c1cc2n(c(=O)c1CO)Cc1cc3ccccc3nc1-2.[Na+] [Sodium camptothecin]
- unpredictable side effects ([4]; administered intravenously): myelosuppression and hemorrhagic cystitis
- activity in clinical trials ([4]; solubilized by sodium hydroxide in water, intravenous): antineoplastic activity
